Source: patent US8865724B2, “Preparation of 2-methyl-4-amino-5(substituted-1H-1,2,3-triazolyl)methylpyrimidine derivatives and microbicidal activity thereof” (Central China Normal University, priority 2011, dated 2014)
Where two headings read alike, the source gives them in different places.

What was measured:
[1] = system: Rice Sheath Blight Disease (sheath and culm blight of rice); experiment: Spawn growth rate on agar plates (Embodiment 9); type: cell-based, Rhizoctonia solani; details: 48 h; for inhibition of growth at 12.5 µg/g: Concentration 12.5 μg/g; for inhibition of growth at 25 µg/g: Concentration 25 μg/g; for inhibition of growth at 50 µg/g: Concentration 50 μg/g
gray mold of cucumber = experiment: Spawn growth rate on agar plates (Embodiment 9); type: cell-based, Botrytis cinerea; details: 48 h; for inhibition of growth at 12.5 µg/g: Concentration 12.5 μg/g; for inhibition of growth at 25 µg/g: Concentration 25 μg/g; for inhibition of growth at 50 µg/g: Concentration 50 μg/g
wheat scab = experiment: microbe, parasite or virus in culture; type: cell-based, Gibberella zeae; details: for inhibition of growth at 100 µg/g: 48 h, read-out: Wheat scab Average inhibition rate (%); for Wheat scab (inhibition): Table 7
early blight of tomato = experiment: Spawn growth rate on agar plates (Embodiment 9); type: cell-based, Alternaria solania; details: for inhibition of growth at 100 µg/g: 48 h, testing concentration of 100 μg/g, Table 6; for Early blight of tomato (inhibition): Table 7
[2] = system: Corynespora Leaf Spot of Cucumber; experiment: Microbicidal activity on cucumber seedlings, spray then spore inoculation (Embodiment 8); details: Corynespora, in Cucumis sativus, read-out: Corynespora Leaf Spot of Cucumber Average inhibition rate (%)
Procedure: (§1) (Pseudomonassyringaepv. tomato (Okabe) Young, Dye & Wilkie), Cucumber Angular Leaf Spot, Rice Sheath Blight Disease (Rhizoctonia solani), Corynespora Leaf Spot of Cucumber (Corynespora cassiicola), Downy Mildew of Cucumber (Cucumber Downy Mildew).
(§2) Testing agents and control agents were sprayed uniformly at A.M. of a sunshine day on the cucumber seminal leaves. After 2 hours, the leaves were inoculated with pathogenic microbes and cultured at humidity. […] Strip inoculation is used for Rice Sheath Blight Disease and phytophthora blight of pepper, in which the liquor was sprayed and after 2 hours, inoculation of strips was performed followed by culturing at humidity. After full occurrence of diseases in the control group, state of illness was examined according to grading standards, and a disease index and inhibition rate were calculated.

Downy Mildew of Cucumber = experiment: as above; details: Cucumis sativus, read-out: Downy Mildew of Cucumber Average inhibition rate (%)
Procedure: as §1, §2

[3] = system: Rice Sheath Blight Disease; experiment: Microbicidal activity, spray then strip inoculation (Embodiment 8); details: Oryza sativa, read-out: Rice Sheath Blight Disease Average inhibition rate (%)
Procedure: as §1, §2

[4] = system: Cucumber Angular Leaf Spot; experiment: Microbicidal activity on cucumber seedlings, spray then inoculation (Embodiment 8); details: Cucumis sativus, read-out: Cucumber Angular Leaf Spot Average inhibition rate (%)
Procedure: as §1, §2

[5] = Concentration 100 μg/g, Table 7, read-out: Sheath and culm blight of rice (inhibition)
[6] = testing concentration of 100 μg/g, Table 6, read-out: Sheath and culm blight of rice Average inhibition rate (%)
[7] = Concentration 100 μg/g, Table 7, read-out: Gray mold of cucumber (inhibition)
[8] = testing concentration of 100 μg/g, Table 4, read-out: Gray mold of cucumber Average inhibition rate (%)
[9] = testing concentration of 100 μg/g, Table 6, read-out: Gray mold of cucumber Average inhibition rate (%)

SMILES	inhibition of growth at 100 µg/g [1, 6] [%]	inhibition of growth at 100 µg/g (gray mold of cucumber; [8]) [%]	inhibition of growth at 100 µg/g (gray mold of cucumber; [9]) [%]	inhibition of growth at 100 µg/g (wheat scab) [%]	inhibition of growth at 100 µg/g (early blight of tomato) [%]	melting point [°C]	inhibition of growth at 12.5 µg/g ([1]; Table 8) [%]	inhibition of growth at 25 µg/g ([1]; Table 8) [%]	inhibition of growth at 50 µg/g ([1]; Table 8) [%]	inhibition of growth at 12.5 µg/g (gray mold of cucumber; Table 8) [%]	inhibition of growth at 25 µg/g (gray mold of cucumber; Table 8) [%]	inhibition of growth at 50 µg/g (gray mold of cucumber; Table 8) [%]	pest or weed control at 500 µg/g [2] [%]	pest or weed control at 500 µg/g (Downy Mildew of Cucumber) [%]	pest or weed control at 500 µg/g [3] [%]	pest or weed control at 500 µg/g [4] [%]	further results
CC1COC(Cn2cncn2)(c2ccc(Oc3ccc(Cl)cc3)cc2Cl)O1 (centres unmarked) [Difenoconazole, reference compound]	100	73	96	98	100												inhibition of growth at 100 µg/g [1, 5]: 91%; inhibition of growth at 100 µg/g ([1]; Concentration 100 μg/g, Table 8, read-out: Sheath and culm blight of rice (inhibition)): 100%; inhibition of growth at 100 µg/g (gray mold of cucumber; [7]): 86%; inhibition of growth at 100 µg/g (gray mold of cucumber; Concentration 100 μg/g, Table 8, read-out: Gray mold of cucumber (inhibition)): 96%; Wheat scab (inhibition) (wheat scab; Concentration 100 μg/g): 95%
Cc1ncc(Cn2nnc(COc3ccc([N+](=O)[O-])cc3)c2I)c(N)n1 [Compound 24]	97		84	68	66	215 to 217											
Cc1ncc(Cn2nnc(COc3ccc(F)cc3)c2I)c(N)n1 [Compound 82]	96		96	48	70	160 to 162	63	90	100	56	97	99					
Cc1ncc(Cn2nnc(COc3ccc(Br)cc3)c2I)c(N)n1 [Compound 84]	98		93	62	58	138 to 140	73	95	97	66	90	94					
Cc1ncc(Cn2cc(COc3ccc([N+](=O)[O-])cc3)nn2)c(N)n1 [Compound 1]													50	75	90	60	
COc1ccc(OCc2cn(Cc3cnc(C)nc3N)nn2)cc1 [Compound 13]		49				115 to 117							80	50	70	60	
Cc1ncc(Cn2cc(COc3ccc([N+](=O)[O-])cc3[N+](=O)[O-])nn2)c(N)n1 [Compound 8]		54				210 to 211							70	60	70	60	
COC(=O)Cc1ccc(OCc2cn(Cc3cnc(C)nc3N)nn2)cc1 [Compound 9]		79				142 to 143							60	80	90	60	
Cc1ncc(Cn2cc(COc3ccccc3)nn2)c(N)n1 [Compound 12]		53				132 to 133							70	70	80	60	
COc1ccc(OCc2nnn(Cc3cnc(C)nc3N)c2I)cc1 [Compound 26]	99		92	55	69	177 to 179	58	72	94	43	55	88					
Cc1ncc(Cn2nnc(COc3ccccc3Cl)c2I)c(N)n1 [Compound 86]	99		100	62	60	168 to 170	37	74	98	40	76	97					
Cc1ncc(Cn2cc(COc3ccc(Cl)c(C)c3)nn2)c(N)n1 [Compound 11]		67		54		142 to 143							65	50	70	60	
Cc1ncc(Cn2nnc(COc3ccc(Cl)c(C)c3)c2I)c(N)n1 [Compound 25]	97		96	62	71	215 to 217	0	25	61	40	50	67					
Cc1ncc(Cn2nnc(COc3ccc(Cl)cc3)c2I)c(N)n1 [Compound 28]	100		100	67	69	183 to 185	87	96	98	85	90	98					inhibition of growth at 25 µg/g ([1]; Table 7): 91%; inhibition of growth at 50 µg/g ([1]; Table 7): 98%; inhibition of growth at 100 µg/g [1, 5]: 99%; inhibition of growth at 25 µg/g (gray mold of cucumber; Table 7): 42%; inhibition of growth at 50 µg/g (gray mold of cucumber; Table 7): 86%; inhibition of growth at 100 µg/g (gray mold of cucumber; [7]): 90%; Wheat scab (inhibition) (wheat scab; Concentration 25 μg/g): 43%; Wheat scab (inhibition) (wheat scab; Concentration 50 μg/g): 64%; Wheat scab (inhibition) (wheat scab; Concentration 100 μg/g): 69%; Early blight of tomato (inhibition) (early blight of tomato; Concentration 25 μg/g): 0%; Early blight of tomato (inhibition) (early blight of tomato; Concentration 50 μg/g): 28%; Early blight of tomato (inhibition) (early blight of tomato; Concentration 100 μg/g): 68%
Cc1ncc(Cn2nnc(COc3ccc(F)cc3Cl)c2I)c(N)n1 [Compound 27]	94		99	39	38	187 to 189	0	37	72	59	66	92					
Cc1ncc(Cn2cc(COc3ccc(F)cc3Cl)nn2)c(N)n1 [Compound 6]		63				169 to 171							90	30	70	65	
Cc1ncc(Cn2nnc(COc3ccc(C#N)cc3)c2I)c(N)n1 [Compound 31]	97		95	58	70	199 to 201	78	88	96	75	87	91					
Cc1ncc(Cn2cc(COc3ccccc3[N+](=O)[O-])nn2)c(N)n1 [Compound 16]		82		63		184 to 185							80	50	70	70	
CCOC(=O)c1ccc(OCc2cn(Cc3cnc(C)nc3N)nn2)cc1 [Compound 3]		70				190 to 192							80	60	80	60	
Cc1ncc(Cn2nnc(COc3ccccc3)c2I)c(N)n1 [Compound 23]	96		88	59	57												
